This test is described as follows: Inhibition of HIV1 Vif interaction with ElonginC (unknown origin) co-transfected in 293 T cells assessed as decrease in ElonginC precipitation at 20 uM measured after 1 hr in presence of ant-FLAG antibody by immunoblot analysis. In kind it is cell-based. A general note: Immunoblotting shows a protein as a band on a membrane.

Consider 1 compound from ChEMBL document CHEMBL4627332, “Interruption of Vif/Elongin C interaction: In silico and experimental elucidation of the underlying molecular mechanism of benzimidazole-based APOBEC3G stabilizers” (Bioorg Med Chem, 2020).

The structures appear in SMILES notation. Calls of active or inactive are those of the source. The calls are words filed in the database; no cut-off is given here.

`Cc1noc(C)c1CSc1nc2ccccc2n1-c1ccccc1`: the inhibition result was “Active”.
